Nine compounds from PubChem BioAssay (NCI) can be followed below.

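Following 48 hours of exposure in 96-well plates, responses at five concentrations were used to interpolate endpoints linearly. GI50: concentration for 50% inhibition of growth. TGI marks complete inhibition of growth.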

Some test systems named below: TK-10 renal; HOP-92 NSCLC; LOX IMVI melanoma; SK-OV-3 ovarian; M14 melanoma; MDA-MB-231 breast; HCC-2998 colon; ACHN renal.
Holding throughout (experiment): NCI-60 cell line screen, 48 h

In the case of `CC1(C)CC([P+](c2ccccc2)(c2ccccc2)c2ccccc2)=NN1`, the GI50 in the test on TK-10 renal was 1.47 µM; in the test with HOP-92 NSCLC, 3.75 µM; in the test with LOX IMVI melanoma, 3.74 µM; in the test on SK-OV-3 ovarian, 11.7 µM; in the test on M14 melanoma, 11.4 µM; in the test on MDA-MB-231 breast, 13.7 µM. In addition, the GI50 in the test with HCC-2998 colon was 2.79 µM; with ACHN renal it was 60.2 µM. The TGI in the test on TK-10 renal was 16.6 µM; in the test on HOP-92 NSCLC it was 71.9 µM; in the test with LOX IMVI melanoma it was above 100 µM; in the test on SK-OV-3 ovarian it was 68.7 µM; in the test on M14 melanoma, above 100 µM; with MDA-MB-231 breast it was above 100 µM. The TGI in the test with HCC-2998 colon and in the test on ACHN renal was above 100 µM in each case.

On to `COc1cc(NC(=O)NCc2ccco2)ccc1-c1ccc(NC(=O)NCc2ccco2)cc1OC`, for which the GI50 was 1.01 µM in the test with TK-10 renal; 2.67 µM with HOP-92 NSCLC; 1.28 µM with LOX IMVI melanoma; 2.49 µM with SK-OV-3 ovarian; 3.2 µM in the test on M14 melanoma; 1.41 µM with MDA-MB-231 breast. In addition, the GI50 was 7.97 µM with HCC-2998 colon and 2.84 µM in the test on ACHN renal. Besides, the TGI with TK-10 renal is 9.87 µM; in the test on HOP-92 NSCLC, 7.76 µM; in the test with LOX IMVI melanoma it was above 100 µM; with SK-OV-3 ovarian, 19.7 µM; in the test on M14 melanoma, 38.2 µM; with MDA-MB-231 breast, 3.98 µM. Also, the TGI with HCC-2998 colon and with ACHN renal was above 100 µM each time.

With `COc1cc(F)c(/C=C/c2cc(/C=C/c3cc(OC)c(OC)cc3F)n(-c3cc(F)cc(F)c3)n2)cc1OC`, the GI50 is 3.63 µM in the test with TK-10 renal; 6 µM in the test on HOP-92 NSCLC; 2.62 µM with LOX IMVI melanoma; 19.6 µM in the test on SK-OV-3 ovarian; 1.74 µM with M14 melanoma; 2.62 µM in the test on MDA-MB-231 breast. In addition, the GI50 in the test with HCC-2998 colon was 6.18 µM; in the test with ACHN renal, 18.1 µM. Besides, the TGI with TK-10 renal worked out at 28.3 µM; with HOP-92 NSCLC, 21.5 µM; in the test on LOX IMVI melanoma, 8.3 µM; in the test with SK-OV-3 ovarian, 41.9 µM; in the test with M14 melanoma, 3.53 µM; in the test with MDA-MB-231 breast, 8.86 µM. The TGI in the test with HCC-2998 colon is 47.9 µM; in the test with ACHN renal it was 46.2 µM.

On to `Cc1ccc(Nc2cc(C)nc(NCCCNc3ccnc4cc(Cl)ccc34)n2)cc1`, for which the GI50 with TK-10 renal was 1.81 µM; in the test on HOP-92 NSCLC it was 1.16 µM; in the test with LOX IMVI melanoma, 1.38 µM; in the test on SK-OV-3 ovarian it was 1.57 µM; with M14 melanoma it was 1.56 µM; in the test on MDA-MB-231 breast, 1.38 µM. The figures for the GI50 in the test with HCC-2998 colon and in the test on ACHN renal were 1.38 µM and 1.54 µM, respectively. The TGI with TK-10 renal worked out at 3.29 µM; in the test on HOP-92 NSCLC, 2.89 µM; in the test on LOX IMVI melanoma, 2.83 µM; with SK-OV-3 ovarian, 3.35 µM; with M14 melanoma, 3.33 µM; in the test on MDA-MB-231 breast, 2.87 µM. Besides, the TGI turned out to be 2.8 µM in the test with HCC-2998 colon and 2.91 µM in the test on ACHN renal.

Regarding `CC(C)C[C@H](NC(=O)CCn1ccc2ncccc2c1=O)B(O)O`, the GI50 in the test with TK-10 renal was 6.44 µM; in the test with HOP-92 NSCLC, 14.5 µM; with LOX IMVI melanoma it was 4.53 µM; with SK-OV-3 ovarian, above 66 µM; with M14 melanoma it was 5.45 µM; in the test with MDA-MB-231 breast, 9.73 µM. The GI50 with HCC-2998 colon is 12.9 µM; in the test with ACHN renal it was 9.45 µM. For the same compound, the TGI is 61.8 µM in the test with TK-10 renal; 60.3 µM in the test on HOP-92 NSCLC; 18.7 µM in the test on LOX IMVI melanoma; above 100 µM in the test on SK-OV-3 ovarian; above 47.3 µM in the test on M14 melanoma; 46.6 µM in the test on MDA-MB-231 breast. The TGI was 30.2 µM with HCC-2998 colon and above 100 µM in the test with ACHN renal.

As to `COC(=O)[C@]12CC[C@@H](C)[C@H](C)[C@@H]1C1=CC[C@@H]3[C@@]4(C)C(C=O)=C[C@@](C)(COS(C)(=O)=O)C4[C@H](O)C[C@@]3(C)[C@]1(C)CC2` (stereo partly specified), the GI50 in the test with TK-10 renal is 2 µM; in the test on HOP-92 NSCLC, 2.39 µM; in the test on LOX IMVI melanoma, 1.47 µM; in the test on SK-OV-3 ovarian it was 4.08 µM; in the test on M14 melanoma it was 1.68 µM; in the test with HCC-2998 colon, 1.69 µM. For the same compound, the GI50 in the test on ACHN renal is 1.18 µM. For the same compound, the TGI came out at 4.91 µM in the test with TK-10 renal; 5.56 µM in the test with HOP-92 NSCLC; 2.81 µM in the test on LOX IMVI melanoma; 16.2 µM in the test with SK-OV-3 ovarian; 4.5 µM in the test with M14 melanoma; 3.12 µM in the test with HCC-2998 colon. This compound also came in with a TGI with ACHN renal of 2.56 µM.

Take `COc1c(Cl)ccc2c(-c3nc4cc(Cl)c(F)cc4s3)cc(=O)oc12`: the GI50 in the test with TK-10 renal is 17.4 µM; with HOP-92 NSCLC it was 1.77 µM; with SK-OV-3 ovarian, 7.03 µM; in the test with M14 melanoma it was 26.7 µM; with MDA-MB-231 breast, 2.84 µM; in the test on HCC-2998 colon it was 38.5 µM. Besides, the GI50 in the test with ACHN renal was 4 µM. Further, the TGI with TK-10 renal was 46.1 µM; with HOP-92 NSCLC, 4.07 µM; in the test on SK-OV-3 ovarian it was 19.9 µM; in the test on M14 melanoma it was above 100 µM; in the test on MDA-MB-231 breast it was 11.2 µM; in the test on HCC-2998 colon, above 100 µM. Moreover, the TGI in the test with ACHN renal is 17.2 µM.

Regarding `Fc1ccc2c(c1)C1=C(CO2)C(c2ccc(Cl)cc2)NC(=S)N1` (stereo unspecified), the GI50 in the test on TK-10 renal was 59.1 µM; with HOP-92 NSCLC it was 61 µM; with LOX IMVI melanoma, 23 µM; in the test on SK-OV-3 ovarian, 68.8 µM; in the test with M14 melanoma, 24 µM; in the test with MDA-MB-231 breast, 18.8 µM. Besides, the GI50 with ACHN renal was 37.4 µM. Also, the TGI is above 100 µM with TK-10 renal; above 100 µM in the test on HOP-92 NSCLC; 61.7 µM in the test on LOX IMVI melanoma; above 100 µM in the test on SK-OV-3 ovarian; 57.5 µM in the test with M14 melanoma; 55.7 µM in the test with MDA-MB-231 breast. The TGI in the test on ACHN renal is above 100 µM.

For `Clc1ccc(CNc2nccc(-c3cnn4ncccc34)n2)cc1`, the GI50 in the test on TK-10 renal was 8.71 µM; with LOX IMVI melanoma, 6.12 µM; in the test on SK-OV-3 ovarian it was 11.8 µM; in the test on M14 melanoma it was 7.09 µM; in the test with MDA-MB-231 breast, 8.5 µM; in the test on HCC-2998 colon it was 6.67 µM. Besides, in the test with ACHN renal, the GI50 is 5.95 µM. Moreover, the TGI in the test with TK-10 renal is above 23.5 µM; in the test with LOX IMVI melanoma, above 25 µM; with SK-OV-3 ovarian, above 25 µM; in the test with M14 melanoma, above 17 µM; in the test on MDA-MB-231 breast, above 25 µM; in the test with HCC-2998 colon, 18.4 µM. This compound also gave a TGI in the test on ACHN renal above 25 µM.
